The values below are quoted from earlier work in patent publication US20070190090A1, “SIALAGOGUE BASED ORAL CARE PRODUCTS” (WhiteHill Oral Technologies, Inc., priority 2006, published 2007).

SMILES strings stand for the structures.

The test system of data set [1] is certain microorganisms (Gram positive and Gram negative bacteria). Conditions: toxicity varying for Gram positive and Gram negative bacteria.
The conditions of data set [2]: mice, orally.

As to `C/C=C/C=C\CC/C=C/C(=O)NCC(C)C` [affinin, N-isobutyl-2E,6Z,8E-decatrienamide], in data set [1], the “toxicity to certain microorganisms” value was “toxic”. In data set [2] (doses from 2.5 to 10.0 mg/kg), the analgesic effect result is “analgesic effect”. In addition, in data set [2] (highest dose (10.0 mg/kg)), the deaths result is recorded as “two out of five” and the “effect on normal motor activity” value was “severe depression of normal motor activity”.
